Reference: ChEMBL document CHEMBL5537176, “Discovery of Novel Pyridazine-Tethered Sulfonamides as Carbonic Anhydrase II Inhibitors for the Management of Glaucoma” (J Med Chem, 2024)

Molecular target: Carbonic anhydrase 9 (Homo sapiens, UniProt Q16790)
Assay: Inhibition of human CA IX assessed as inhibition constant by stopped-flow CO2 hydrase assay method

## COc1cc2c(cc1OC)-c1c(c(C(=O)Nc3ccc(S(N)(=O)=O)cc3)nn1C)C2
  Ki: 3.2 nM
